Test results published in patent publication US10471046B2, “Method for treating, preventing, or reducing the risk of skin infection” (Melinta Subsidiary Corp., priority 2014, dated 2019).
≈ marks a conversion by molar mass, not a printed value.

System: S. aureus
Assay: Minimum inhibitory concentrations (MICs) for S. aureus of exemplary compounds (Table 2)
Format: cell-based
Conditions: Staphylococcus aureus, minimum inhibitory concentrations for S. aureus; read-out: MICs
Method in brief: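 Growth of S. aureus in media with or without compound, by broth microdilution in microtiter trays following NCCLS M7-A5 guidelines. Values are MICs in μg/mL.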

| Structure (SMILES) | MIC [µg/mL] |
| --- | --- |
| CC(=O)NC[C@H]1CN(c2ccc(-c3ccc(C(=N)NCc4ccco4)cc3)c(F)c2)C(=O)O1 [Compound 4222, N-{3-[2-Fluoro-4′-(N-furan-2-ylmethyl-carbamimidoyl)-biphenyl-4-yl]-2-oxo-oxazolidin-5-(S)-ylmethyl}-acetamide] | 16 (≈ 35.5 µM) |
| CC(=O)NC[C@H]1CN(c2ccc(-c3ccc(C[S+]([O-])c4nnnn4C)cc3)c(F)c2)C(=O)O1 (stereo partly drawn) [Compound 2020, N-{3-[2-Fluoro-4′-(1-methyl-1H-tetrazole-5-sulfinylmethyl)-biphenyl-4-yl]-2-oxo-oxazolidin-5-(S)-ylmethyl}-acetamide] | 0.25 (≈ 0.529 µM) |
| CC(=O)NC[C@H]1CC(c2ccc(-c3ccc(CNCc4ccncc4)cc3)nc2)=NO1 [Compound 4133, N-{3-[6-(4-{[(Pyridin-4-ylmethyl)-amino]-methyl}-phenyl)-pyridin-3-yl]-4,5-dihydro-isoxazol-5-(R)-ylmethyl}-acetamide] | 128 (≈ 308 µM) |
| CC(=O)NC[C@H]1CN(c2ccc(-c3ccc(CNC(=O)C4(NC(=O)OC(C)(C)C)CC4)cc3)c(F)c2)C(=O)O1 [Compound 4304, [1-({4′-[5-(S)-(Acetylamino-methyl)-2-oxo-oxazolidin-3-yl]-2′-fluoro-biphenyl-4-ylmethyl}-carbamoyl)-cyclopropyl]-carbamic acid tert-butyl ester] | 16 (≈ 29.6 µM) |
| CC(=O)NC[C@H]1CN(c2ccc(-c3ccc([C@H](O)CN4CCC4)cc3)c(F)c2)C(=O)O1 [Compound 1062, N-{3-[4′-(2-Azetidin-1-yl-1-(S)-hydroxy-ethyl)-2-fluoro-biphenyl-4-yl]-2-oxo-oxazolidin-5-(S)-ylmethyl}-acetamide] | 8 (≈ 18.7 µM) |
| CC(=O)NC[C@H]1CN(c2ccc(-c3ccc(CN(Cc4c[nH]cn4)Cc4cnc[nH]4)cc3)c(F)c2)C(=O)O1 [Compound 4068, N-[3-(2-Fluoro-4′-{[(1H-imidazol-4-ylmethyl)-(3H-imidazol-4-ylmethyl)-amino]-methyl}-biphenyl-4-yl)-2-oxo-oxazolidin-5-(S)-ylmethyl]-acetamide] | 128 (≈ 247 µM) |
| CC(=O)NC[C@H]1CN(c2ccc(-c3ccc(S(=O)(=O)NCc4ccncc4)cc3)c(F)c2)C(=O)O1 [Compound 3005, N-(3-{2-Fluoro-4′-[(pyridin-4-ylmethyl)-sulfamoyl]-biphenyl-4-yl}-2-oxo-oxazolidin-5-(S)-ylmethyl)-acetamide] | 2 (≈ 4.01 µM) |
| CC(=O)NC[C@H]1CN(c2ccc(-c3ccc(C(C)NCc4ccoc4)cc3)c(F)c2)C(=O)O1 (mixture of isomers) [Compound 4144, N-[3-(2-Fluoro-4′-{1-(R/S)-[(furan-3-ylmethyl)-amino]-ethyl}-biphenyl-4-yl)-2-oxo-oxazolidin-5-(S)-ylmethyl]-acetamide] | 4 |
| CC(=O)NC[C@H]1CN(c2ccc(-c3ccc(CNC(=O)[C@@H]4C=CCN4C(=O)OC(C)(C)C)cc3)c(F)c2)C(=O)O1 [Compound 4305, 2-({4′-[5-(S)-(Acetylamino-methyl)-2-oxo-oxazolidin-3-yl]-2′-fluoro-biphenyl-4-ylmethyl}-carbamoyl)-2,5-dihydro-pyrrole-1-(S)-carboxylic acid tert-butylester] | 16 (≈ 29 µM) |
| CC(=O)NC[C@H]1CN(c2ccc(-c3ccc(Cn4ccnc4)c(F)c3)c(F)c2)C(=O)O1 [Compound 1010, N-[3-(2,3′-Difluoro-4′-imidazol-1-ylmethyl-biphenyl-4-yl)-2-oxo-oxazolidin-5-(S)-ylmethyl]-acetamide] | 1 (≈ 2.35 µM) |
| CC(=O)NC[C@H]1CC(c2ccc(-c3ccc(CNC(=O)c4ccccc4C(=O)O)cc3)cc2)=NO1 [Compound 4106, N-{4′-[5-(R)-(Acetylamino-methyl)-4,5-dihydro-isoxazol-3-yl]-biphenyl-4-ylmethyl}-phthalamic acid] | 128 (≈ 271 µM) |
| CC(=O)NC[C@H]1CN(c2ccc(-c3ccc(CN4CC[C@@H](N)C4)cc3)c(F)c2)C(=O)O1 [Compound 1091, N-{3-[4′-(3-(R)-Amino-pyrrolidin-1-ylmethyl)-2-fluoro-biphenyl-4-yl]-2-oxo-oxazolidin-5-(S)-ylmethyl}-acetamide] | 2 (≈ 4.69 µM) |
| CC(=O)NC[C@H]1CN(c2ccc(-c3ccc(CN(C)Cc4ccccn4)cc3)c(F)c2)C(=O)O1 [Compound 4045, N-(3-{2-Fluoro-4′-[(methyl-pyridin-2-ylmethyl-amino)-methyl]-biphenyl-4-yl}-2-oxo-oxazolidin-5-(S)-ylmethyl)-acetamide] | 2 (≈ 4.32 µM) |
| CNc1nc(CNCc2ccc(-c3ccc(N4C[C@H](CNC(C)=O)OC4=O)cc3F)cc2)ns1 [Compound 4180, N-[3-(2-Fluoro-4′-{[(5-methylamino-[1,2,4]thiadiazol-3-ylmethyl)-amino]-methyl}-biphenyl-4-yl)-2-oxo-oxazolidin-5-(S)-ylmethyl]-acetamide] | 1 (≈ 2.06 µM) |
| CC(=O)NC[C@H]1CN(c2ccc(-c3ccc(CNC(C)c4ccncc4)cc3)c(F)c2)C(=O)O1 (mixture of isomers) [Compound 4159, N-(3-{2-Fluoro-4′-[(1-pyridin-4-(R/S)-yl-ethylamino)-methyl]-biphenyl-4-yl}-2-oxo-oxazolidin-5-(S)-ylmethyl)-acetamide] | 2 (≈ 4.32 µM) |
| CC(=O)NC[C@H]1CN(c2ccc(-c3ccc(CNCc4nccn4C)cc3)c(F)c2)C(=O)O1 [Compound 4076, N-[3-(2-Fluoro-4′-{[(1-methyl-1H-imidazol-2-ylmethyl)-amino]-methyl}-biphenyl-4-yl)-2-oxo-oxazolidin-5-(S)-ylmethyl]-acetamide] | 4 (≈ 8.86 µM) |
| CC(=O)NC[C@H]1CN(c2ccc(-c3ccc(CNCc4ncsn4)cc3)c(F)c2)C(=O)O1 [Compound 4206, N-[3-(2-Fluoro-4′-{[([1,2,4]thiadiazol-3-ylmethyl)-amino]-methyl}-biphenyl-4-yl)-2-oxo-oxazolidin-5-(S)-ylmethyl]-acetamide] | 1 (≈ 2.2 µM) |
| CC(=O)NC[C@H]1CN(c2ccc(-c3ccc(Cn4cc(CN(C)C)nn4)cc3)c(F)c2)C(=O)O1 [Compound 1013, N-{3-[4′-(4-Dimethylaminomethyl-[1,2,3]triazol-1-ylmethyl)-2-fluoro-biphenyl-4-yl]-2-oxo-oxazolidin-5-(S)-ylmethyl}-acetamide] | 4 (≈ 8.57 µM) |
| O=C1O[C@@H](CO)CN1c1ccc(-c2ccc(CNCc3ccncc3)cc2)c(F)c1 [Compound 4213, 3-(2-Fluoro-4′-{[(pyridin-4-ylmethyl)-amino]-methyl}-biphenyl-4-yl)-5-(R)-hydroxymethyl-oxazolidin-2-one] | 4 (≈ 9.82 µM) |
| CC(=O)NC[C@H]1CN(c2ccc(-c3ccc(CNCc4nc5ccccc5[nH]4)cc3)c(F)c2)C(=O)O1 [Compound 4092, N-[3-(4′-{[(1H-Benzoimidazol-2-ylmethyl)-amino]-methyl}-2-fluoro-biphenyl-4-yl)-2-oxo-oxazolidin-5-(S)-ylmethyl]-acetamide] | 4 (≈ 8.2 µM) |
| CC(=O)NC[C@H]1CN(c2ccc(-c3ccc(CNCc4ccc[nH]4)cc3)c(F)c2)C(=O)O1 [Compound 4048, N-[3-(2-Fluoro-4′-{[(1H-pyrrol-2-ylmethyl)-amino]-methyl}-biphenyl-4-yl)-2-oxo-oxazolidin-5-(S)-ylmethyl]-acetamide] | 2 (≈ 4.58 µM) |
| CC(=O)NC[C@H]1CN(c2ccc(-c3ccc(CNCCSc4ncccn4)cc3)c(F)c2)C(=O)O1 [Compound 5009, N-[3-(2-Fluoro-4′-{[2-(pyrimidin-2-ylsulfanyl)-ethylamino]-methyl}-biphenyl-4-yl)-2-oxo-oxazolidin-5-(S)-ylmethyl]-acetamide] | 1 (≈ 2.02 µM) |
